# Laboratory results as given in the Kinase Knowledgebase extract (Sharma et al. 2016).
# Columns and labels:
# EGFR (human) [1] = biological target: EGFR (human) (UniProt P00533); conditions: a431
# EGFR (human) [2] = biological target: EGFR (human) (UniProt P00533); conditions: a431; remark: listed apart in the source
# EGFR (human) [3] = biological target: EGFR (human) (UniProt P00533); conditions: A431
# EGFR (human) [4] = biological target: EGFR (human) (UniProt P00533); conditions: a431; remark: listed apart in the source
# Chain of EGFR (human) (P00533 whole entry, looked up): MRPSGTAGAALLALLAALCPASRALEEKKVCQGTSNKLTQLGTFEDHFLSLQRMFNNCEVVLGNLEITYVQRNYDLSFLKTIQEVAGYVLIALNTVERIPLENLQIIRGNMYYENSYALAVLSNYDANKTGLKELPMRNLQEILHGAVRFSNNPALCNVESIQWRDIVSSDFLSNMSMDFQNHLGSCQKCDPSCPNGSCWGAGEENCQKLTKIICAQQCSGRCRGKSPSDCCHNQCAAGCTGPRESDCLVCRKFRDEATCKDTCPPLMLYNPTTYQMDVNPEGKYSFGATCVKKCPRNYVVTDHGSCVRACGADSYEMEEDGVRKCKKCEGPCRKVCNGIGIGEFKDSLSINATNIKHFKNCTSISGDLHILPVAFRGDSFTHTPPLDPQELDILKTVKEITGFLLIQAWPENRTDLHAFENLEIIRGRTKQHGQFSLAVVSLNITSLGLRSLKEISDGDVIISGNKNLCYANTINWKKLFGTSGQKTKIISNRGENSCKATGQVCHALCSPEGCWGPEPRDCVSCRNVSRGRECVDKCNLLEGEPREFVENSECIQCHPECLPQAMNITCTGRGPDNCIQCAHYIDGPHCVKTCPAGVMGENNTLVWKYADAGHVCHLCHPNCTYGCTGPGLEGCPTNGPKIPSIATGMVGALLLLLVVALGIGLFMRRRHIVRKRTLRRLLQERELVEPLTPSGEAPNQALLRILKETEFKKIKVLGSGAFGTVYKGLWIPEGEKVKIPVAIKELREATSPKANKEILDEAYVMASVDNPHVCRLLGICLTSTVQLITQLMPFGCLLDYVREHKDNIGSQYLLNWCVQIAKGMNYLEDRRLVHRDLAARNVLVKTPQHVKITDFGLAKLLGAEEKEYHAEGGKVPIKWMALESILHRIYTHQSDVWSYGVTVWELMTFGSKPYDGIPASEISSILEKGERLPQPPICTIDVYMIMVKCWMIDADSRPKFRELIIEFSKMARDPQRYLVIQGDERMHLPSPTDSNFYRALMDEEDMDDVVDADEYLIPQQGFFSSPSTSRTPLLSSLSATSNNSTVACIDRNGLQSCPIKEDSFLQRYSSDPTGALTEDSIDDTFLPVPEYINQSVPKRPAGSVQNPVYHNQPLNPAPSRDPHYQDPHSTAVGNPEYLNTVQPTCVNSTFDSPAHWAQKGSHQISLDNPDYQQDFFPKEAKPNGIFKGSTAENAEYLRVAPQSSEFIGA
IC50 (EGFR (human) [1]) [µM],IC50 (EGFR (human) [2]) [µM],inhibition (EGFR (human) [3]),IC50 (EGFR (human) [4]) [nM],IC50 (EGFR (human) [3]) [µM],inhibition (EGFR (human) [4]),SMILES
22.8,3,0,,,,COc1ccc(CCCNc2ncnc3cc(OC)c(OC)cc23)cc1OC
11.7,77,,706,1.6,,COc1cccc(Nc2ncnc3cc(OC)c(OC)cc23)c1
,,0,,,0,COc1cc2ncnc(N(C)c3cccc(Br)c3)c2cc1OC
26.5,30,0,,,,COc1ccc(CCNc2ncnc3cc(OC)c(OC)cc23)cc1OC
> 100,> 100,,,9.4,,COc1ccc(Nc2ncnc3cc(OC)c(OC)cc23)cc1OC
27.1,30,,,31.6,,COc1ccc(CNc2ncnc3cc(OC)c(OC)cc23)cc1OC
1.4,2.1,0,,,,COc1cc2ncnc(N3CCN(c4ccccc4OC)CC3)c2cc1OC
38.7,58.8,0,,,,COc1cccc(N2CCN(c3ncnc4cc(OC)c(OC)cc34)CC2)c1
> 100,> 100,0,,,,COc1ccc(CCCCNc2ncnc3cc(OC)c(OC)cc23)cc1OC
> 100,> 100,,,31.6,,COc1cc2ncnc(NCCNc3ccccc3)c2cc1OC
4.4,> 100,,563,0.0437,,COc1cc2ncnc(Nc3ccccc3[N+](=O)[O-])c2cc1OC

# Further lines, the compound ahead of its results:
SMILES,IC50 (EGFR (human) [1]) [µM],IC50 (EGFR (human) [2]) [µM],inhibition (EGFR (human) [3]),IC50 (EGFR (human) [4]) [nM],IC50 (EGFR (human) [3]) [µM],inhibition (EGFR (human) [4])
COc1cc2nc(N3CCOCC3)nc(N3CCOCC3)c2cc1OC,> 100,> 100,0,,,
COc1cc2nc(Nc3cccc(Br)c3)nc(Nc3cccc(Br)c3)c2cc1OC,13.2,25.3,0,,,
COc1cc2nc(Nc3cccc(Br)c3)n3nnnc3c2cc1OC,> 100,> 100,0,,,
COc1cc2ncnc(N3CCS(=O)(=O)CC3)c2cc1OC,> 100,> 100,0,,,
COc1cc2ncnc(N3CCOCC3)c2cc1OC,> 100,> 100,0,,,
COc1cc2nc3nccn3c(Nc3cccc(Br)c3)c2cc1OC,6.8,6.6,0,,,
COc1cc2ncnc(N3CCN(c4ccccn4)CC3)c2cc1OC,63.5,67.4,0,,,
COc1cc2ncnc(N3CCN(c4ccccc4Cl)CC3)c2cc1OC,13.7,14.6,0,,,
COc1cc2ncnc(N3CCN(Cc4ccccc4)CC3)c2cc1OC,21.8,34.6,,,17.9,
COc1cc2ncnc(N3CCN(c4cccc(Cl)c4)CC3)c2cc1OC,> 100,> 100,0,,,
COc1cc2c(Nc3cccc(Br)c3)nc3nnnn3c2cc1OC,> 100,> 100,0,,,
COc1cc2ncnc(N3CCNCC3)c2cc1OC,> 100,> 100,0,,,
COc1cc2ncnc(N3CCN(c4cccc(C(F)(F)F)c4)CC3)c2cc1OC,4.7,3.9,0,,,
COc1cc2ncnc(N3CCN(c4ccc(F)cc4)CC3)c2cc1OC,> 100,> 100,0,,,
COc1cc2ncnc(N3CCN(c4ccccc4C)CC3)c2cc1OC,> 100,> 100,0,,,
COc1cc2ncnc(N3CCN(c4ccc(Cl)cc4)CC3)c2cc1OC,24.7,85,,,0.0047,
COc1cc2ncnc(N3CCN(c4ccccc4)CC3)c2cc1OC,30.8,33.6,0,,,
COc1ccc(N2CCN(c3ncnc4cc(OC)c(OC)cc34)CC2)cc1,> 100,> 100,0,,,
COc1cc2ncnc(N3CCN(c4ccc([N+](=O)[O-])cc4)CC3)c2cc1OC,40.8,> 100,,,0.0168,
COc1cc2ncnc(N3CCN(c4ccccc4F)CC3)c2cc1OC,> 100,> 100,0,,,
COc1cc2ncnc(N3CCSCC3)c2cc1OC,> 100,> 100,0,,,
